Test results taken from publication PMC8897147 (Acta Pharmaceutica Sinica. B, 2021).

What was measured:
Settings in all cases: COS-7
[1] = target: T1, CLR/RAMP3 (Homo sapiens, UniProt O60896+Q16602); experiment: β-Arrestin2 recruitment
[2] = target: T1, CLR/RAMP3; experiment: β-Arrestin1 recruitment
[3] = target: CLR (Homo sapiens, UniProt Q16602); experiment: cAMP accumulation
Chain of CLR (Q16602 23-461): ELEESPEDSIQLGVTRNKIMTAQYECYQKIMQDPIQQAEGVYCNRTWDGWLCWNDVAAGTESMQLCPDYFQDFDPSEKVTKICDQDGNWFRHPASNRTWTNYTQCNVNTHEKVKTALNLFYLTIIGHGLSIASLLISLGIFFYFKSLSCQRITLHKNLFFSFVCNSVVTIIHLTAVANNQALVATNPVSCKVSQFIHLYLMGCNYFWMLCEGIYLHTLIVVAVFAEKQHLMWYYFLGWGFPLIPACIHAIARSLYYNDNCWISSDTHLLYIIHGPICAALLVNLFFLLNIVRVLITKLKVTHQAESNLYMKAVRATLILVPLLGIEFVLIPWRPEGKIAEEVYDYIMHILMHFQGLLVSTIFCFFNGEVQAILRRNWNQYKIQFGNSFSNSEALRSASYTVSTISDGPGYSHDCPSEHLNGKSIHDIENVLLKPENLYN

T1 sequence (Q16602 23-461): as above
T1 sequence (O60896 24-148): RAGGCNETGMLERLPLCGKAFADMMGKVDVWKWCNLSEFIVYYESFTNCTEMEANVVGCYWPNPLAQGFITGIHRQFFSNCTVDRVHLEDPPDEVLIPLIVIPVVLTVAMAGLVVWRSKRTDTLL

Emax [1]: 58.4 ± 10.9% | Emax [2]: 17.9 ± 11.7% | Emax [3]: 46.3 ± 2.9%
SMILES: CC[C@H](C)[C@H](NC(=O)[C@H](CCC(N)=O)NC(=O)[C@H](Cc1c[nH]cn1)NC(=O)[C@H](C)NC(=O)[C@H](CC(C)C)NC(=O)[C@H](CCCCN)NC(=O)[C@H](CCC(N)=O)NC(=O)[C@@H](NC(=O)[C@@H](NC(=O)[C@@H]1CSSC[C@H](NC(=O)CNC(=O)[C@H](Cc2ccccc2)NC(=O)[C@H](CO)NC(=O)[C@H](CCCNC(=N)N)NC(=O)[C@H](CC(C)C)NC(=O)CNC(=O)[C@H](CCC(N)=O)NC(=O)[C@H](Cc2ccccc2)NC(=O)[C@H](CC(N)=O)NC(=O)[C@H](CC(N)=O)NC(=O)[C@H](CCSC)NC(=O)[C@H](CO)NC(=O)[C@H](CCC(N)=O)NC(=O)[C@H](CCCNC(=N)N)NC(=O)[C@@H](N)Cc2ccc(O)cc2)C(=O)N[C@@H](CCCNC(=N)N)C(=O)N[C@@H](Cc2ccccc2)C(=O)NCC(=O)N[C@@H]([C@@H](C)O)C(=O)N1)[C@@H](C)O)C(C)C)C(=O)N[C@@H](Cc1ccc(O)cc1)C(=O)N[C@@H](CCC(N)=O)C(=O)N[C@@H](Cc1ccccc1)C(=O)N[C@H](C(=O)N[C@@H](CC(=O)O)C(=O)N[C@@H](CCCCN)C(=O)N[C@@H](CC(=O)O)C(=O)N[C@@H](CCCCN)C(=O)N[C@@H](CC(=O)O)C(=O)N[C@@H](CC(N)=O)C(=O)N[C@H](C(=O)N[C@@H](C)C(=O)N1CCC[C@H]1C(=O)N[C@@H](CCCNC(=N)N)C(=O)N[C@@H](CO)C(=O)N[C@@H](CCCCN)C(=O)N[C@H](C(=O)N[C@@H](CO)C(=O)N1CCC[C@H]1C(=O)N[C@@H](CCC(N)=O)C(=O)NCC(=O)N[C@@H](Cc1ccc(O)cc1)C(N)=O)[C@@H](C)CC)C(C)C)[C@@H](C)O [Adrenomedullin, adrenomedullin]
